# Reference: article PMC12365674, “Diverse metabolites with anti-psoriasis potential from different fermentations of the fungicolous fungus Xylarialongipes HFG1018” (IMA Fungus, 2025)
# Entries after “also recorded” stand apart in the source; their conditions may differ. Read-outs that look alike come from different tables or passages of the source.
# Columns and labels:
# HaCaT cells [1] = experiment: Antiproliferative activity against HaCaT cells (CCK-8); format: cell-based; details: read-out: IC50 against the proliferation of HaCaT cells
# Description: (§1) As previously described, the immunosuppressive activity, lymphocyte viability, and antiproliferative activity against HaCaT cells were evaluated using the CCK-8 method ([Zhao et al. 2023], [2024]).
# (§2) In the immunosuppressive and lymphocyte viability, the primary tested concentration of all compounds was 20.0 μM, and dexamethasone (Dex) (c = 2.0 μM) was used as a positive control. In the antiproliferative activity against HaCaT cells, the primary tested concentration of all compounds was 40 μM, and the positive control was methotrexate (MTX) (c = 40.0 μM). When the inhibition rates are greater than 50%, the IC50 values of active compounds will be further tested and calculated. All experiments were performed in triplicate.
# [2] = test system: ConA-induced T lymphocytes; experiment: Anti-proliferative activity against ConA-induced T lymphocytes (CCK-8); format: cell-based; details: Mus musculus, T-lymphocyte; for inhibition at 20 µM: c = 20 μM; for IC50: induced proliferation of T lymphocytes (ConA), CCK-8, read-out: T cells IC50
# Description: as §1, §2
# [3] = test system: ConA-induced T lymphocytes; experiment: as above; format: cell-based; details: Mus musculus, T-lymphocyte, c = 40 μM, read-out: Inhibition rate (%) T
# lymphocytes [4] = experiment: Lymphocyte viability (CCK-8); format: cell-based, mouse
# Description: as §1, §2
# [5] = test system: LPS-induced B lymphocytes; experiment: Anti-proliferative activity against LPS-induced B lymphocytes (CCK-8); format: cell-based; details: Mus musculus, Lymphocyte, c = 40 μM, read-out: Inhibition rate (%) B
# [6] = test system: LPS-induced B lymphocytes; experiment: as above; format: cell-based, mouse; details: Mus musculus, Lymphocyte; for inhibition at 20 µM: c = 20 μM; for IC50: induced proliferation of B lymphocytes (LPS), CCK-8, read-out: B cells IC50
# Description: as §1, §2
# lymphocytes [7] = experiment: Lymphocyte viability (CCK-8); format: cell-based, mouse; details: c = 40 μM
# IL-17A = experiment: Cytokine analysis by ELISA of induced T cells: IL-17A; format: cell-based, mouse; details: 40 μM; ConA-induced T cells, 48 h; P < 0.05 vs. model
# Description: (§3) The mononuclear cell suspensions (2 × 10^5 cells/well) were cultured with ConA (5 μg/mL) in 96-well plates, and indicated concentrations of compounds 2, 15, and 32 were added simultaneously. After a 48-hour culture period, cytokines in the supernatants were quantified using mouse IFN-γ, IL-2, and IL-17A ELISA kits (Mabtech, Sweden), following the manufacturer’s protocol ([Jing et al. 2021]; [Zhao et al. 2024]).
# [8] = test system: induced B cells (LPS 15 μg/mL); experiment: EdU proliferation assay, induced B cells; format: cell-based, mouse; details: c = 20 μM; relative to the model group
# Description: (§4) EdU fluorescence labeling for cell proliferation of induced T/B lymphocytes (2 × 10^5 cells/well) and HaCaT cells (1 × 10^4 cells/well) of active compounds 10, 19, 23, 32, 38, and 41 (final concentration 10 or 20 μM) was performed as previously reported ([Biram and Shulman 2020]; [Zhao et al. 2024]). EdU (HF488) (the Click-iT™ EdU Flow Cytometry Assay Kit, APExBIO, USA) was added 24 h (final concentration 50 μM, T and B cells) and 4 h (final concentration 10 μM, HaCaT cells) before harvesting the cells. All procedures were performed according to the manufacturer’s instructions for the click reaction. EdU-positive cells and proliferating phase cells were analyzed with a fluorescence microscope.
# [9] = test system: induced T cells (Con A 5 μg/mL); experiment: EdU proliferation assay, induced T cells; format: cell-based, mouse; details: c = 20 μM; relative to the model group
# Description: as §4
# IFN-γ = experiment: Cytokine analysis by ELISA of induced T cells: IFN-γ; format: cell-based, mouse; details: ConA-induced T cells, 48 h; all sample groups; P < 0.0001 vs. model
# Description: as §3
# [10] = Lymphocyte viability (CCK-8); format: cell-based, mouse; details: mouse, lymphocytes; lymphocyte viability; CCK-8
# Description: as §1, §2
# HaCaT cells [11] = experiment: EdU proliferation assay, HaCaT cells; format: cell-based; details: c = 20 μM; compared to the control group
# Description: as §4
# [12] = ConA-induced T lymphocytes, read-out: Inhibition rate (%) T
# [13] = LPS-induced B lymphocytes, read-out: Inhibition rate (%) B
compound,measurement,setting,value
3-methoxy-2-phenethyl-1H-pyrrole-1-carbaldehyde [Compound 35],IC50,HaCaT cells [1],31.5 ± 2.4 µM
"CC12CCOC(C1)C1=C(CCC3C(C)(C(=O)O)CCCC13C)C2 (stereo not drawn) [Compound 1, 11α,16-Epoxy-isopimar-8(9)-en-19β-oic acid]",inhibition at 20 µM,[2]; [12],11.4 ± 6.4%
same,inhibition at 40 µM,[3],16.5 ± 1.5%
same,Cell validity (%),lymphocytes [4]; c = 20 μM,86.3 ± 2.1%
same,inhibition at 40 µM,[5],20.4 ± 6.3%
same,inhibition at 20 µM,[6]; [13],18.9 ± 7.5%
same,Cell validity (%),lymphocytes [7],90.7 ± 4.0%
"C[C@]1(CCO[C@H]2O[C@H](CO)[C@@H](O)[C@H](O)[C@@H]2O)CCC2=C(CC[C@H]3[C@@](C)(C(=O)O)CCC[C@]23C)C1 [Compound 2, 16-α-D-Mannopyranosyloxyisopimar-8(9)-en-19-oic acid]",IL-17A levels,IL-17A,markedly lowered
same,proliferation of induced B cells measured by EdU,[8],significantly suppressed the proliferation
same,inhibition at 20 µM,[2]; [12],23.8 ± 0.9%
same,inhibition at 40 µM,[3],32.8 ± 6.8%
same,Cell validity (%),lymphocytes [4]; c = 20 μM,100.0 ± 2.4%
same,proliferation of induced T cells measured by EdU,[9],significantly suppressed the proliferation
same,inhibition at 40 µM,[5],30.6 ± 6.2%
same,IFN-γ secretion,IFN-γ,significant reduction; also recorded: significantly reduced
same,inhibition at 20 µM,[6]; [13],24.9 ± 8.6%
same,Cell validity (%),lymphocytes [7],89.8 ± 7.9%
"C[C@]1(CCO[C@H]2O[C@H](CO)[C@@H](O)[C@H](O)[C@H]2O)CCC2=C(CC[C@H]3[C@@](C)(C(=O)O)CCC[C@]23C)C1 [Compound 3, 16-α-D-Glucopyranosyloxyisopimar-8(9)-en-19-oic acid]",inhibition at 20 µM,[2]; [12],15.7 ± 7.9%
same,inhibition at 40 µM,[3],26.5 ± 3.3%
same,Cell validity (%),lymphocytes [4]; c = 20 μM,87.7 ± 7.4%
same,inhibition at 40 µM,[5],22.6 ± 9.6%
same,inhibition at 20 µM,[6]; [13],11 ± 4.9%
same,Cell validity (%),lymphocytes [7],89.9 ± 4.4%
"CCC1CCc2occc(=O)c2C1O (stereo not drawn) [Compound 9, 6-ethyl-5-hydroxy-5,6,7,8-tetrahydro-4H-chromen-4-one]",IC50,"HaCaT cells [1]; Homo sapiens, HaCaT",35 ± 3.1 µM
"CCc1ccc2occ(COC)c(=O)c2c1 [Compound 11, 6-ethyl-3-(methoxymethyl)-4H-chromen-4-one]",IC50,[2],> 20 µM
same,CC50,[10],> 20 µM
same,IC50,[6],20 ± 1.5 µM
"CC[C@@]1(O)CCc2occ(COC)c(=O)c2[C@@H]1O [Compound 13, (5S,6R)-6-ethyl-5,6-dihydroxy-3-(methoxymethyl)-5,6,7,8-tetrahydro-4H-chromen-4-one]",IC50,"HaCaT cells [1]; Homo sapiens, HaCaT",31.1 ± 2.6 µM
"C[C@]1(CCO[C@H]2O[C@H](CO)[C@@H](O)[C@H](O)[C@@H]2O)CC[C@H]2C(=CC[C@@H]3[C@]2(C)CCC[C@]3(C)C(=O)O)C1 [Compound 16, 16-α-D-mannopyranosyloxyisopimar-7-en-19-oic acid]",inhibition at 20 µM,[2]; [12],13.1 ± 2.7%
same,inhibition at 40 µM,[3],20.7 ± 4.3%
same,Cell validity (%),lymphocytes [4]; c = 20 μM,101.8 ± 6.9%
same,inhibition at 40 µM,[5],20.5 ± 10.6%
same,inhibition at 20 µM,[6]; [13],19.3 ± 4.6%
same,Cell validity (%),lymphocytes [7],96.2 ± 1.1%
"C[C@]1(CCO[C@H]2O[C@H](CO)[C@@H](O)[C@H](O)[C@H]2O)CC[C@H]2C(=CC[C@@H]3[C@]2(C)CCC[C@]3(C)C(=O)O)C1 [Compound 17, 16-α-D-glucopyranosyloxyisopimar-7-en-19-oic acid]",inhibition at 20 µM,[2]; [12],10.1 ± 4.4%
same,inhibition at 40 µM,[3],16.3 ± 4.3%
same,Cell validity (%),lymphocytes [4]; c = 20 μM,94.0 ± 5.6%
same,inhibition at 40 µM,[5],20.7 ± 6.9%
same,inhibition at 20 µM,[6]; [13],11.5 ± 3.1%
same,Cell validity (%),lymphocytes [7],100.0 ± 8.5%
"COc1ccc2oc(C)cc(=O)c2c1O [Compound 19, 5-hydroxy-6-methoxy-2-methyl-4H-1-benzopyran-4-one]",IC50,"HaCaT cells [1]; Homo sapiens, HaCaT",29.7 ± 3.3 µM
same,proliferation rates of HaCaT cells measured by EdU,HaCaT cells [11],significantly reduced
"COc1cccc2c1C(=O)O[C@@H](C)C2 [Compound 22, (S)-8-methoxy-3-methylisochroman-1-one]",IC50,"HaCaT cells [1]; Homo sapiens, HaCaT",32.3 ± 1.5 µM
"COc1ccc(O)c2c1C(=O)O[C@@H](C)C2 [Compound 24, (S)-5-hydroxy-8-methoxy-3-methylisochroman-1-one]",IC50,"HaCaT cells [1]; Homo sapiens, HaCaT",32.5 ± 2 µM
"COC(=O)c1ccc(O)c2c1C[C@@H](C)OC2=O [Compound 25, (R)-(−)-5-methoxycarbonylmellein]",IC50,"HaCaT cells [1]; Homo sapiens, HaCaT",35.1 ± 1.9 µM
"COC(=O)c1c[nH]c2ccccc12 [Compound 28, 1H-indole-3-carboxylic acid methyl ester]",IC50,"HaCaT cells [1]; Homo sapiens, HaCaT",29.1 ± 1.7 µM
"C[C@@H]1Cc2c(C(=O)O)ccc(O)c2C(=O)O1 [Compound 30, (R)-5-carboxymellein]",IC50,"HaCaT cells [1]; Homo sapiens, HaCaT",31.2 ± 4.1 µM
"CC(C)[C@@H](C)CC[C@@H](C)[C@H]1CC[C@H]2C3=C[C@@H](O)[C@@]4(O)C[C@@H](O)CC[C@]4(C)[C@H]3CC[C@]12C [Compound 33, (24S)-ergosta-7-ene-3β,5α,6β-triol]",IC50,"HaCaT cells [1]; Homo sapiens, HaCaT",33.9 ± 2.8 µM
"CC(C)[C@@H](C)/C=C/[C@@H](C)[C@H]1CC[C@H]2C3=CC(=O)[C@@]4(O)C[C@@H](O)CC[C@]4(C)[C@@]3(O)CC[C@]12C [Compound 34, 3β,5α,9α-trihydroxy-(22E,24R)-ergosta-7,22-dien-6-one]",IC50,"HaCaT cells [1]; Homo sapiens, HaCaT",32.2 ± 3.4 µM
"c1ccc2c3c([nH]c2c1)CNCC3 [Compound 36, tryptoline]",IC50,[2],> 20 µM
same,CC50,[10],> 20 µM
same,IC50,[6],16.7 ± 1.8 µM
"CC(C)CC1NC(=O)C2CCCN2C1=O [Compound 37, cyclo-((S)-Pro-(R)-Leu))]",IC50,"HaCaT cells [1]; Homo sapiens, HaCaT",32 ± 2.2 µM
"CCCCCC=C(C(=O)O)C(C)C(=O)O (stereo not drawn) [Compound 40, 2-hexylidene-3-methylsuccinic acid]",IC50,"HaCaT cells [1]; Homo sapiens, HaCaT",32.9 ± 3.4 µM
"CC(C)C(C)C(OC1OC(CO)C(O)C(O)C1O)C(O)C(C)C1CCC2=C3C=CC4=CC(=O)CCC4(C)C3CCC21C [Compound 41, 22,23-dihydroxy-ergosta-4,6,8(14)-trien-3-one-23-β-D-glucopyranoside]",IC50,[2],12.1 ± 1.7 µM
same,IC50,"HaCaT cells [1]; Homo sapiens, HaCaT",27.7 ± 2.5 µM
same,proliferation rates of HaCaT cells measured by EdU,HaCaT cells [11],significantly reduced
same,CC50,[10],> 20 µM
same,IC50,[6],16.7 ± 1.9 µM
"C[C@@H]1C[C@H]2[C@@H]3CCC4=CC(=O)C=C[C@]4(C)[C@@]3(F)[C@@H](O)C[C@]2(C)[C@@]1(O)C(=O)CO [Dex, dexamethasone, reference compound]",inhibition at 2 µM,"[2]; c = 2 μM, ConA-induced T lymphocytes, read-out: Inhibition rate (%) T",45.2 ± 4.9%
same,IC50,[2],1.9 ± 0.1 µM
same,CC50,[10],0.2 ± 0.04 µM
same,Cell validity (%),lymphocytes [4]; c = 2 μM,36.9 ± 2.2%
same,inhibition at 2 µM,"[6]; c = 2 μM, LPS-induced B lymphocytes, read-out: Inhibition rate (%) B",68.6 ± 1.5%
same,IC50,[6],1 ± 0.05 µM
"CN(Cc1cnc2nc(N)nc(N)c2n1)c1ccc(C(=O)N[C@@H](CCC(=O)O)C(=O)O)cc1 [MTX, methotrexate, reference compound]",IC50,"HaCaT cells [1]; Homo sapiens, HaCaT",26.4 ± 1.4 µM
